How the values were obtained:
[1] = target: T1, RXR receptor (Homo sapiens, UniProt P19793); test: RXR activation (transient transfection reporter assay); format: cell-based; conditions: 1 μM compared to 9-cis-RA at equal concentration
T1 construct: expressed in transfected cells
T1 sequence (P19793 1-462): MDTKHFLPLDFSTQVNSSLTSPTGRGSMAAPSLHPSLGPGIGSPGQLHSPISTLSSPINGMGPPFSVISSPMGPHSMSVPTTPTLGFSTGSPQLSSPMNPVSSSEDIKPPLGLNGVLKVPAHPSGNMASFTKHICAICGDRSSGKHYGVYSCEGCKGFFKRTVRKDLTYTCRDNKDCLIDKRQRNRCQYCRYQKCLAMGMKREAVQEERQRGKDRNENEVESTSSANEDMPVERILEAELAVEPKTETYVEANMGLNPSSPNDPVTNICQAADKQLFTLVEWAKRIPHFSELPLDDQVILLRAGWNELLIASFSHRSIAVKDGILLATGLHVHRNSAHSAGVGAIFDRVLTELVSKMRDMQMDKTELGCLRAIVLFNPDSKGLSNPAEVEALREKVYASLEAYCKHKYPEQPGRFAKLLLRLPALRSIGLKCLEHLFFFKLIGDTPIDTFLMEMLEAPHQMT
Excerpt: RXR agonists activate the RXR receptor when interacting with RXR by binding to its binding pocket. This activation can be independent of whether the agonist, while interacting with portions of the ligand binding pocket, also interacts with side pocket 1. Activation, also often referred to as transcriptional activation, of RXR by agonists can be measured by a number of commonly used assays where the effect of the agonist ligand interacting with the RXR ligand binding pocket is to stimulate or induce transcription of a gene or genes in a cell. In one particular embodiment, transient transfection experiments (as described essentially by Zhang, et al. (1996) Negative Regulation of Peroxisome Proliferator—Activated Receptor—γ Gene Expression Contributes to the Antiadipogenic effects of Tumor Necrosis Factor—α. Mol. Endo. 10:1457-1456) can be used. In these cases, full length RXR proteins are expressed in living cells. Alternatively, hybrid proteins that contain a portion of another DNA binding domain and the ligand binding portion of the human RXRα receptor can be expressed in living cells instead of the full length RXR protein. Such hybrid proteins can bind to and activate specific reporter genes introduced into the same living cell and activation of such reporter genes is measured. The assays described here are very commonly used today by people skilled in the art of molecular biology experimenting. Transient transection assays are often used instead of ligand binding assays and can serve to measure or estimate an affinity of an RXR agonist ligand for RXR protein. The effective dose fifty (ED50, also called EC50) is the concentration of the ligand necessary to lead to one half maximal activation of the reporter gene in a living cell. Compounds that show 60% of the activity of the agonist 9-cis retenoic acid at 10^−6 M can be considered an RXR activator/agonist. Compounds which show 70% 80% 90% of the activity of the agonist 9-cis retinoic acid are also provided.
To confirm that the computer modeling/design of a compound does result in an RXR activator or RXR agonist, i.e. a compound that leads to RXR activation or transcriptional activation, commonly used assays can be applied, where the effect of the agonist or activator, interacting with the RXR ligand binding pocket is to stimulate or induce transcription of a gene or genes in a cell. In one particular embodiment, transient transfection experiments (as described essentially by Zhang, et al. (1996) Negative Regulation of Peroxisome Proliferator—Activated Receptor—γ Gene Expression Contributes to the Antiadipogenic effects of Tumor Necrosis Factor—α. Mol. Endo. 10:1457-1456) can be used. In these cases, full length RXR proteins are expressed in living cells. Alternatively, hybrid proteins that contain a portion of another DNA, binding domain and the ligand binding portion of the human RXRα receptor can be expressed in living cells instead of the fall length RXR protein. Such hybrid proteins can bind to and activate specific reporter genes introduced into the same living cell and activation of such reporter genes is measured (Brand, A. H. & Perrimon, 1993, Development, 118:401-415; Moya-Camarena, S. Y. et.al., 1999, J. Lipid Res., 40:1426:1433; Yi, Y. W. et al., 2000, Biochem. Biophys. Res. Commun., 272:193-198, each are herein incorporated by reference at least for material related to reporter assays). These assays not only measure binding of the ligand to its target, which could also be measured by an in vitro binding assay, but also measure the agonistic or activator activity of the compound. In such an assay, new compounds are compared to a standard activator like compound I or the natural agonist of RXR: 9-cis retinoic acid (see Example 7). For instance, all compounds that show at a given concentration at least 60% of the activity of 9-cis retinoic acid can be considered useful activators.

[2] = system: Mouse 3T3-L1 preadipocytes; test: 3T3-L1 adipocyte differentiation assay; format: cell-based; conditions: 0.1 μM compared to Compound 1 at equal concentration; pre-adipocytes to adipocytes
Method: Mouse 3T3-L1 cells were grown in 96-well tissue culture plates containing growing medium (DME containing 10% calf serum (CS) plus glutamine-pen-strep) at a density of 3,000 cells/well. Two days after reaching confluence, cells are treated with the different compounds in DM (Day 0). Compound 1 is included in all the experiments, and its ability to differentiate 3T3-L1 cells at 0.1 μM is taken as reference for 100% differentiation. After 7 days the lipid content of the cells was determined.
Prior to testing compounds in vivo, they can be run through the in vitro adipocyte differentiation assay based on the protocol of Zhang, et al. (1996) Negative Regulation of Peroxisome Proliferator—Activated Receptor—γGene Expression Contributes to the Antiadipogenic effects of Tumor Necrosis Factor—α. Mol. Endo. 10:1457-1456, incorporated herein by reference. In short, mouse 3T3-L1 preadipocytes are grown in culture medium containing 10% calf serum supplemented with antibiotics. Two days after reaching confluence, cells are treated with the selected compound at different concentrations dissolved in medium containing 10% fetal calf serum supplemented with antibiotics and kept at 10% CO2. The test compounds are replaced every 2-3 days. Differentiation is assessed after 7 days of treatment by the lipid content in the cells, using the Triglyceride (INFINITY) reagent (Sigma Chemical, St. Louis, Mo.).
The ability of a compound to induce preadipocytes to differentiate into adipocytes is an indicator of its antidiabetic activity. This allows for screening many compounds in a simple in vitro assay, thus avoiding the task of testing all compounds in vivo. The adipocyte differentiation assay is based on the protocol of Zhang, et al. (1996) Negative Regulation of Peroxisome Proliferator-Activated Receptor-γ Gene Expression Contributes to the Antiadipogenic effects of Tumor Necrosis Factor—α. Mol. Endo. 10:1457-1456, incorporated herein by reference at least for material related to adipocyte differentiation assays. Mouse 3T3-L1 preadipocytes are grown in culture medium containing 10% calf serum supplemented with antibiotics. Two days after reaching confluence, cells are treated with the selected compound at different concentrations dissolved in medium containing 10% fetal calf serum supplemented with antibiotics and kept at 10% CO2. The test compounds are replaced every 2-3 days. Differentiation is assessed after 7 days of treatment by the lipid content in the cells, using the Triglyceride (INFINITY) reagent (Sigma Chemical, St. Louis, Mo.) (see FIG. 15).

[3] = system: KKA^y mice; test: Antidiabetic activity in type 2 diabetic KKA^y mice; format: in vivo, mouse; conditions: for Efficacious in KKAy Mice: efficacious = lowers glucose without increasing triglycerides
Method: Prior to commencing treatment, all of the animals are bled from the tail vein and serum levels of glucose and triglyceride are measured in duplicate. The animals are then sorted into different treatment groups with equal average triglyceride levels. The animals are treated with a single daily oral dose of the test compound suspended in sesame oil (dose volume of 3 ml/kg).
In short, adult diabetic KKA^y mice are housed in a fixed 12—12-hr artificial light-dark cycle, and maintained on a standard rodent diet. Prior to commencing treatment, all of the animals are bled from the tail vein and serum levels of glucose and triglyceride are measured in duplicate. The animals are then sorted into different treatment groups with equal average triglyceride levels. The animals are treated with a single daily oral dose ranging from 3-30 mg/kg of the test compound suspended in sesame oil (dose volume of 3-5 ml/kg). Following one week of treatment the animals are bled from the tail vein and Serum glucose and triglycerides are measured in duplicate.
In this example, compound 1, which belongs to the novel subclass of RXR ligands is compared to a typical RXR ligand like compound 2 in the treatment of KKA^y mice.
For this study, adult diabetic KKA^y mice were housed in a fixed 12—12-hr artificial light-dark cycle, and maintained on a standard rodent diet. Prior to commencing treatment, all of the animals are bled from the tail vein and serum levels of glucose and triglyceride are measured in duplicate. The animals are then sorted into different treatment groups with equal average triglyceride levels. The animals are treated with a single daily oral dose of the test compound suspended in sesame oil (dose volume of 3 ml/kg).

[4] = system: BALB/c mice; test: Effect on serum triglyceride levels in wild type BALB/c mice; format: in vivo, mouse; conditions: FIG. 13, p≦0.01
Method: The animals were treated with a single daily oral dose of the test compound suspended in sesame oil (dose volume of 5 ml/kg). […], Animas treated with 10 and 30 mg/kg of Compound 1, which are doses that are 30 and 100 times the efficacious does in diabetic db/db mice, respectively, caused no increase in serum triglyceride levels compared to vehicle treated control animals.
Test compounds are tested in wild type mice at 10-100 times the efficacious dose in diabetic mice. Typically, adult male BALB/c mice are housed in a fixed 12—12-hr artificial light-dark cycle, and maintained on a standard rodent diet. The animals are treated with a single daily oral dose of the test compound suspended in sesame oil (dose volume of 5 ml/kg) as also described in the examples. Approximately two weeks later the animals are bled from the tail vein, then necropsied following sacrifice by carbon dioxide asphyxiation. Several serum biochemical parameters are measured. Of special significance is the effect the selected compounds have on serum triglyceride levels compared to vehicle treated control animals.
For these studies, adult male BALB/c mice were housed in a fixed 12—12-hr artificial light-dark cycle, and maintained on a standard rodent diet. The animals were treated with a single daily oral dose of the test compound suspended in sesame oil (dose volume of 5 ml/kg).

[5] = system: db/db mice; conditions: at the concentrations used in the KKA^y study; cited from earlier work
[6] = following two weeks of treatment

SMILES: Cc1cc2c(cc1-c1cc(C=C3SC(=O)NC3=O)ccc1N(C)C)C(C)(C)CCC2(C)C [Compound 3]
- RXR Activation [1]: 120%
- Differentiation Activity [2]: 100%
- Efficacious in KKAy Mice [3]: Yes

SMILES: CO/N=C1\CCC(C)(C)c2cc(C)c(-c3cc(/C=C4\SC(=O)NC4=O)ccc3OC(F)(F)F)cc21 [Example 8, 3-[(1-Oxo-4,4,6-trimethyl-1,2,3,4-tetrahydronaphthalene-7-yl)-O-methyloxime]-4-trifluoromethoxy-benzylidene-2,4-thiazolidinedione]
- melting point: 224 °C

SMILES: CON=C1CCC(C)(C)c2cc(C)c(-c3cc(C=C4SC(=O)NC4=O)ccc3OC(F)(F)F)cc21 [Compound 7]
- RXR Activation [1]: 100%
- Differentiation Activity [2]: 80%
- glucose lowering activity ([3]; FIG. 16): glucose lowering activity
- triglyceride lowering activity ([3]; FIG. 17): triglyceride lowering activity
- Efficacious in KKAy Mice [3]: Yes

SMILES: Cc1cc2c(cc1C1(c3ccc(C(=O)O)cn3)CC1)C(C)(C)CCC2(C)C [Compound 5]
- Differentiation Activity [2]: >100%
- Efficacious in KKAy Mice [3]: No

SMILES: CO/N=C1\CCC(C)(C)c2cc(C)c(-c3cc(/C=C4\SC(=O)NC4=O)ccc3Cl)cc21
- melting point: 252 to 254 °C

SMILES: CO/N=C1\CCC(C)(C)c2cc(C)c(-c3cc(/C=C4\SC(=O)NC4=O)ccc3N(C)C)cc21
- melting point: 254 to 256 °C

SMILES: Cc1cc2c(cc1-c1cc(C=C3SC(=O)NC3=O)ccc1O)C(C)(C)CCC2(C)C [Compound 4]
- RXR Activation [1]: >100%
- Differentiation Activity [2]: >100%
- Efficacious in KKAy Mice [3]: No

SMILES: C=C(c1ccc(C(=O)O)cc1)c1cc2c(cc1C)C(C)(C)CCC2(C)C [Compound 2, reference compound]
- Differentiation Activity [2]: >100%
- serum glucose levels compared to vehicle treated controls ([3]; 5 and 15 mg/kg, single daily oral dose in sesame oil, FIG. 10): no difference
- serum triglyceride levels compared to vehicle treated controls ([3]; 5 and 15 mg/kg, single daily oral dose, FIG. 11, statistically significant at 5 mg/kg): increase
- Efficacious in KKAy Mice [3]: No
- glucose levels compared to vehicle treated controls [3, 6]: failed to decrease
- triglyceride levels compared to vehicle treated controls [3, 6]: significantly increased
- serum triglyceride levels compared to vehicle treated control animals ([4]; 50 and 100 mg/kg, daily oral, statistically significant at 100 mg/kg): increase
- serum triglyceride levels compared to vehicle treated controls ([4]; similar excess over its effective glucose lowering dose in db/db mice): statistically significant, dose dependent increase
- glucose levels in type 2 diabetic db/db mice [5]: lower
- triglyceride levels in type 2 diabetic db/db mice [5]: lower

SMILES: CC(C)Cc1cc(-c2cc(C=C3SC(=O)NC3=O)ccc2OC(F)(F)F)c2c(c1)C(C)(C)CO2 [Compound 9]
- RXR Activation [1]: 125%
- Differentiation Activity [2]: 30%
- Efficacious in KKAy Mice [3]: Yes

SMILES: CCN1C(=O)CC(C)(C)c2cc(C)c(-c3cc(/C=C4\SC(=O)NC4=O)ccc3OC(F)(F)F)cc21 [Compound 8, 5-[3-(1-Ethyl-4,4,6-trimethyl-2-oxo-1,2,3,4-tetrahydro-quinolin-7-yl)-4-trifluoromethoxy-benzylidene]-thiazolidine-2,4-dione]
- RXR Activation [1]: 90%
- Differentiation Activity [2]: 95%
- Efficacious in KKAy Mice [3]: Yes

SMILES: COc1ccc(C=C2SC(=O)NC2=O)cc1-c1cc2c(cc1C)C(C)(C)CCC2(C)C [Compound 6]
- RXR Activation [1]: >100%
- Differentiation Activity [2]: >100%
- Efficacious in KKAy Mice [3]: No
